Laboratory results taken from the NIST ThermoML archive (doi:10.1021/acs.jced.7b00107).
Numbers after ± are expanded uncertainties.

Columns and labels:
[1] = Molar enthalpy of transition or fusion; details: Adiabatic calorimetry
[2] = for molar entropy: 101.33 kPa; for Triple point temperature: Adiabatic calorimetry

Cl.NC12CC3CC(CC(C3)C1)C2 [1-aminoadamantane hydrochloride]
Molar enthalpy of transition or fusion ([1]; Crystal 2): 0.153 ± 0.003 kJ/mol
Molar enthalpy of transition or fusion ([1]; Crystal 3): 0.045 ± 0.003 kJ/mol
molar entropy ([2]; 5 K, Crystal 3, Small (less than 1 g) adiabatic calorimetry): 0.1924 ± 0.028 J/K/mol
molar entropy ([2]; 10 K, Crystal 3, Small (less than 1 g) adiabatic calorimetry): 1.564 ± 0.063 J/K/mol
molar entropy ([2]; 15 K, Crystal 3, Small (less than 1 g) adiabatic calorimetry): 4.477 ± 0.13 J/K/mol
molar entropy ([2]; 20 K, Crystal 3, Small (less than 1 g) adiabatic calorimetry): 8.48 ± 0.18 J/K/mol
molar entropy ([2]; 25 K, Crystal 3, Small (less than 1 g) adiabatic calorimetry): 13.09 ± 0.23 J/K/mol
molar entropy ([2]; 30 K, Crystal 3, Small (less than 1 g) adiabatic calorimetry): 17.99 ± 0.28 J/K/mol
molar entropy ([2]; 35 K, Crystal 3, Small (less than 1 g) adiabatic calorimetry): 22.99 ± 0.32 J/K/mol
molar entropy ([2]; 40 K, Crystal 3, Small (less than 1 g) adiabatic calorimetry): 27.96 ± 0.36 J/K/mol
molar entropy ([2]; 45 K, Crystal 3, Small (less than 1 g) adiabatic calorimetry): 32.87 ± 0.39 J/K/mol
molar entropy ([2]; 50 K, Crystal 3, Small (less than 1 g) adiabatic calorimetry): 37.68 ± 0.43 J/K/mol
molar entropy ([2]; 60 K, Crystal 3, Small (less than 1 g) adiabatic calorimetry): 46.99 ± 0.51 J/K/mol
molar entropy ([2]; 70 K, Crystal 3, Small (less than 1 g) adiabatic calorimetry): 55.88 ± 0.58 J/K/mol
molar entropy ([2]; 80 K, Crystal 3, Small (less than 1 g) adiabatic calorimetry): 64.42 ± 0.65 J/K/mol
molar entropy ([2]; 90 K, Crystal 3, Small (less than 1 g) adiabatic calorimetry): 72.68 ± 0.73 J/K/mol
molar entropy ([2]; 100 K, Crystal 3, Small (less than 1 g) adiabatic calorimetry): 80.74 ± 0.8 J/K/mol
molar entropy ([2]; 110 K, Crystal 3, Small (less than 1 g) adiabatic calorimetry): 88.67 ± 0.85 J/K/mol
molar entropy ([2]; 120 K, Crystal 2, Small (less than 1 g) adiabatic calorimetry): 96.9 ± 0.93 J/K/mol
molar entropy ([2]; 120 K, Crystal 3, Small (less than 1 g) adiabatic calorimetry): 96.53 ± 0.91 J/K/mol
molar entropy ([2]; 123.1 K, Crystal 1, Small (less than 1 g) adiabatic calorimetry): 100.6 ± 1 J/K/mol
molar entropy ([2]; 123.1 K, Crystal 2, Small (less than 1 g) adiabatic calorimetry): 99.33 ± 0.95 J/K/mol
molar entropy ([2]; 130 K, Crystal 1, Small (less than 1 g) adiabatic calorimetry): 106 ± 1 J/K/mol
molar entropy ([2]; 140 K, Crystal 1, Small (less than 1 g) adiabatic calorimetry): 113.7 ± 1.1 J/K/mol
molar entropy ([2]; 150 K, Crystal 1, Small (less than 1 g) adiabatic calorimetry): 121.3 ± 1.2 J/K/mol
molar entropy ([2]; 160 K, Crystal 1, Small (less than 1 g) adiabatic calorimetry): 128.7 ± 1.2 J/K/mol
molar entropy ([2]; 170 K, Crystal 1, Small (less than 1 g) adiabatic calorimetry): 136 ± 1.2 J/K/mol
molar entropy ([2]; 180 K, Crystal 1, Small (less than 1 g) adiabatic calorimetry): 143.3 ± 1.3 J/K/mol
molar entropy ([2]; 190 K, Crystal 1, Small (less than 1 g) adiabatic calorimetry): 150.5 ± 1.4 J/K/mol
molar entropy ([2]; 200 K, Crystal 1, Small (less than 1 g) adiabatic calorimetry): 157.7 ± 1.4 J/K/mol
molar entropy ([2]; 210 K, Crystal 1, Small (less than 1 g) adiabatic calorimetry): 164.8 ± 1.5 J/K/mol
molar entropy ([2]; 220 K, Crystal 1, Small (less than 1 g) adiabatic calorimetry): 172 ± 1.5 J/K/mol
molar entropy ([2]; 230 K, Crystal 1, Small (less than 1 g) adiabatic calorimetry): 179.1 ± 1.5 J/K/mol
molar entropy ([2]; 240 K, Crystal 1, Small (less than 1 g) adiabatic calorimetry): 186.3 ± 1.6 J/K/mol
molar entropy ([2]; 250 K, Crystal 1, Small (less than 1 g) adiabatic calorimetry): 193.4 ± 1.7 J/K/mol
molar entropy ([2]; 260 K, Crystal 1, Small (less than 1 g) adiabatic calorimetry): 200.6 ± 1.7 J/K/mol
molar entropy ([2]; 270 K, Crystal 1, Small (less than 1 g) adiabatic calorimetry): 207.8 ± 1.7 J/K/mol
molar entropy ([2]; 280 K, Crystal 1, Small (less than 1 g) adiabatic calorimetry): 215 ± 1.9 J/K/mol
molar entropy ([2]; 290 K, Crystal 1, Small (less than 1 g) adiabatic calorimetry): 222.2 ± 1.9 J/K/mol
molar entropy ([2]; 298.15 K, Crystal 1, Small (less than 1 g) adiabatic calorimetry): 228.1 ± 1.9 J/K/mol
molar entropy ([2]; 300 K, Crystal 1, Small (less than 1 g) adiabatic calorimetry): 229.5 ± 1.9 J/K/mol
molar entropy ([2]; 310 K, Crystal 1, Small (less than 1 g) adiabatic calorimetry): 236.7 ± 1.9 J/K/mol
molar entropy ([2]; 320 K, Crystal 1, Small (less than 1 g) adiabatic calorimetry): 244 ± 2.1 J/K/mol
molar entropy ([2]; 330 K, Crystal 1, Small (less than 1 g) adiabatic calorimetry): 251.3 ± 2.1 J/K/mol
molar entropy ([2]; 340 K, Crystal 1, Small (less than 1 g) adiabatic calorimetry): 258.6 ± 2.1 J/K/mol
molar entropy ([2]; 350 K, Crystal 1, Small (less than 1 g) adiabatic calorimetry): 265.9 ± 2.2 J/K/mol
molar entropy ([2]; 360 K, Crystal 1, Small (less than 1 g) adiabatic calorimetry): 273.3 ± 2.3 J/K/mol
molar entropy ([2]; 370 K, Crystal 1, Small (less than 1 g) adiabatic calorimetry): 280.6 ± 2.3 J/K/mol
molar entropy ([2]; 380 K, Crystal 1, Small sample (50 mg) DSC): 288 ± 6.7 J/K/mol
molar entropy ([2]; 390 K, Crystal 1, Small sample (50 mg) DSC): 295.4 ± 6.9 J/K/mol
molar entropy ([2]; 400 K, Crystal 1, Small sample (50 mg) DSC): 302.8 ± 7.2 J/K/mol
molar entropy ([2]; 410 K, Crystal 1, Small sample (50 mg) DSC): 310.2 ± 7.5 J/K/mol
molar entropy ([2]; 420 K, Crystal 1, Small sample (50 mg) DSC): 317.6 ± 7.9 J/K/mol
molar entropy ([2]; 430 K, Crystal 1, Small sample (50 mg) DSC): 325 ± 8.2 J/K/mol
molar entropy ([2]; 440 K, Crystal 1, Small sample (50 mg) DSC): 332.5 ± 8.6 J/K/mol
molar entropy ([2]; 450 K, Crystal 1, Small sample (50 mg) DSC): 339.9 ± 9 J/K/mol
molar entropy ([2]; 460 K, Crystal 1, Small sample (50 mg) DSC): 347.3 ± 9.4 J/K/mol
molar entropy ([2]; 470 K, Crystal 1, Small sample (50 mg) DSC): 354.8 ± 9.8 J/K/mol
Triple point temperature ([2]; Crystal 2): 123.1 ± 0.4 K
Triple point temperature ([2]; Crystal 3): 120 ± 0.4 K
